What was measured:
[1] = test system: Male Sprague-Dawley (SD) rats; test: Oral AMG test in rats: AMG measured by NMR in GI tract, plasma and urine after SGLT inhibitor dosing; type: in vivo, rat; details: for AMG content retained in the GI system / amount of AMG detected in plasma / amount of AMG detected in the urine: rats, compound 0.3 or 3.0 mg/kg oral, AMG 2 g/kg oral 1 h later; for AMG content retained in the GI system: FIG. 1A; for amount of AMG detected in plasma: FIG. 1B; for amount of AMG detected in the urine: FIG. 1C
Procedure: Male Sprague-Dawley (SD) rats were dosed by oral gavage with either vehicle, 0.5% methylcellulose (methocel) in sterile water, or one of the SGLT inhibitors (Compound 1 and Compound 2) at 0.3 or 3.0 mg/kg. Compounds were administered as a suspension in 0.5% methylcellulose and sterile water. One hour after dosing the animals with the compounds, AMG was administrated orally via gavage (2 g/kg). AMG was dissolved in sterile water. Rats were sacrificed 120 or 240 minutes after AMG administration. Urine and plasma samples were collected and the entire gastrointestinal tract was removed and placed into saline. Subsequently, a GI lysate was made. Aliquots were taken from the samples of plasma, urine and the GI lysate and were extracted with acetonitrile to precipitate protein. […] The aqueous portion was dried down and re-suspended in deuterated water to a volume of 0.5 ml.
Proton NMR spectra were acquired on a Bruker DMX 600 MHz NMR spectrometer (Bruker Biospin Corporation, Billerica, Mass.) with the probe temperature maintained at 32° C. The mildly elevated temperature was used to enhance the chemical shift separation between the solvent peak (the residual water in the sample) and the anomeric proton of AMG (a doublet at 4.80 ppm) which was used for quantification. The solvent peak was saturated using very low power irradiation (a field strength of about 4 Hz) during the pre-pulse delay followed by a 30° pulse to acquire the signal. The pre-pulse delay was 3.0 s and the acquisition time was 2.1 s. The sweep width was 13 ppm using 32 k complex points. Before fourier transformation the data was apodized with 0.5 Hz exponential linebroadening. The amount of AMG present in the sample was determined relative to an internal reference, DSS (2,2-dimethyl-2-silapentane-d6-sulfonic acid, sodim salt) at 0.00 ppm.

[2] = biological target: T1, SGLT1 (Homo sapiens, UniProt P13866); test: Cell-based 14C-AMG uptake inhibition assay, CHOK1 cells expressing human SGLT1; design: expressed in transfected cells; details: CHOK1 cells stably expressing human SGLT1, 0.5 mM 14C-AMG, 30 min uptake; read-out: hSGLT1 (IC50, nM) [A]
T1 sequence (P13866 1-664): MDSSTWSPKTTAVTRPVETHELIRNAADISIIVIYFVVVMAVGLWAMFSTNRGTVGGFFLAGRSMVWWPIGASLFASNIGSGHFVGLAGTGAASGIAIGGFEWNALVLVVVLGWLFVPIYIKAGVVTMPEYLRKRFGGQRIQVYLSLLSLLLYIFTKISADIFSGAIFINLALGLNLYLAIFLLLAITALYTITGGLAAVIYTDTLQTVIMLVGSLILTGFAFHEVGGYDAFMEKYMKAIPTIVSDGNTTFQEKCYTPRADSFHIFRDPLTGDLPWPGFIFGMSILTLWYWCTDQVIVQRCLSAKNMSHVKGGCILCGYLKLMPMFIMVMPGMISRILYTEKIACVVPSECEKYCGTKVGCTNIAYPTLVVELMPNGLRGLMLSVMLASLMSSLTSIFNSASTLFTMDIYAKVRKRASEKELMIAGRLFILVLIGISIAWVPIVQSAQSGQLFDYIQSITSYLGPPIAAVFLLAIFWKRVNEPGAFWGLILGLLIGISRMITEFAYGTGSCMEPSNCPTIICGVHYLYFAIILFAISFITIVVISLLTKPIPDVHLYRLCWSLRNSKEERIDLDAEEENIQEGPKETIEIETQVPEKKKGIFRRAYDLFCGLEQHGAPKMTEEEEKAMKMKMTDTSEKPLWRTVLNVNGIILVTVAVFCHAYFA
Procedure: (§1) Inhibition of SGLT activity with Compound 1 and Compound 2 was assessed in CHOK1 cells stably expressing either human SGLT1 or human SGLT2. Compound 1 and Compound 2, are described in U.S. Patent Application Nos. 2005/0233988 and 2008/0027122, the contents of which are incorporated by reference in their entirety.
CHOK1 cells expressing human SGLT2 or human SGLT1 were seeded in 24-well plates at a density of approximately 400,000 cells/well in F-12 nutrient mixture (Ham's F-12) containing 10% fetal bovine serum, 400 ug/ml Geneticin, 50 units/ml sodium penicillin G (Gibco-BRL) and 50 ug/ml streptomycin sulfate. Cells were maintained in culture for 2 days at 37° C. in a humidified atmosphere containing 5% CO2. On the day of the assay, Compound 1 and Compound 2 were dissolved in DMSO and then diluted in assay buffer. The final concentration of DMSO was 0.5%. Assay buffer contained 137 mM NaCl, 5 mM KCl, 1 mM CaCl2, 1 mM MgCl2, 50 mM Hepes, and 20 mM Tris, pH 7.4. To start the assay, cells were washed once with the assay buffer and then incubated with 250 ul of the assay buffer containing Compound 1 or Compound 2 for 10 min at 37° C. […] Cells were then solubilized with 0.3 N NaOH and aliquots were taken for determination of radioactivity by a liquid scintillation counter. […] Specific uptake was normalized for the protein concentrations measured by the method of Bradford. […]

[3] = biological target: T2, SGLT2 (Homo sapiens, UniProt P31639); test: Cell-based 14C-AMG uptake inhibition assay, CHOK1 cells expressing human SGLT2; design: expressed in transfected cells; details: for IC50: CHOK1 cells stably expressing human SGLT2, 0.5 mM 14C-AMG, 30 min uptake, read-out: hSGLT2 (IC50, nM) [B]; for [A]/[B] (fold): ratio hSGLT1 IC50 / hSGLT2 IC50
T2 sequence (P31639 1-672): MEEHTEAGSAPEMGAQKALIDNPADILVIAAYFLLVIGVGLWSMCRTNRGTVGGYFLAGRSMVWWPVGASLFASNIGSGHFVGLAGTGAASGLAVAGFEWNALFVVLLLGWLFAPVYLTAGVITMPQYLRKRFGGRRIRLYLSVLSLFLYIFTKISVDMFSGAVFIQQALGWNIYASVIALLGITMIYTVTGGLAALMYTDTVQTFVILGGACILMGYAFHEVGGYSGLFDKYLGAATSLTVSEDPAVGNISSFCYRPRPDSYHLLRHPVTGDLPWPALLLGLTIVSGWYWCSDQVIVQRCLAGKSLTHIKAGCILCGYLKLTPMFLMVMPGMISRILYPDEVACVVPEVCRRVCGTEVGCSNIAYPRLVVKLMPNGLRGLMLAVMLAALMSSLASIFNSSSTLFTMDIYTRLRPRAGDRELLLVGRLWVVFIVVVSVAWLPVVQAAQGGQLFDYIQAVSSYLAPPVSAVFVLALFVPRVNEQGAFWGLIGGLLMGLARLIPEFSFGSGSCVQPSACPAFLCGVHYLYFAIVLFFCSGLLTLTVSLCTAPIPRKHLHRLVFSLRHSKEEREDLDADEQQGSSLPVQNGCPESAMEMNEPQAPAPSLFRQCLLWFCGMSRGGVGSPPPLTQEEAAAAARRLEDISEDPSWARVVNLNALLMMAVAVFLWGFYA
Procedure: as §1
CHOK1 cells expressing human SGLT2 or human SGLT1 were seeded in 24-well plates at a density of approximately 400,000 cells/well in F-12 nutrient mixture (Ham's F-12) containing 10% fetal bovine serum, 400 ug/ml Geneticin, 50 units/ml sodium penicillin G (Gibco-BRL) and 50 ug/ml streptomycin sulfate. Cells were maintained in culture for 2 days at 37° C. in a humidified atmosphere containing 5% CO2. On the day of the assay, Compound 1 and Compound 2 were dissolved in DMSO and then diluted in assay buffer. The final concentration of DMSO was 0.5%. Assay buffer contained 137 mM NaCl, 5 mM KCl, 1 mM CaCl2, 1 mM MgCl2, 50 mM Hepes, and 20 mM Tris, pH 7.4. To start the assay, cells were washed once with the assay buffer and then incubated with 250 ul of the assay buffer containing Compound 1 or Compound 2 for 10 min at 37° C. The transport reaction was initiated by addition of 50 ul ^14C-AMG solution (final concentration, 0.5 mM ^14C-AMG). After incubation for 30 minutes at 37° C., the uptake was stopped by aspiration of the incubation mixture and the cells were washed three times with ice-cold PBS. Cells were then solubilized with 0.3 N NaOH and aliquots were taken for determination of radioactivity by a liquid scintillation counter. Nonspecific AMG uptake was defined as that which occurred in the presence of 100 uM of phlorizin, a specific inhibitor of sodium-dependent glucose cotransporter. Specific uptake was normalized for the protein concentrations measured by the method of Bradford. The 50% inhibitory concentration (IC50) values were calculated from dose-response curves by least square method.

[4] = test system: facilitated glucose transporters (GLUTs); details: cited from earlier work
[5] = test system: rodent models of diabetes and one canine diabetes model; details: cited from earlier work
[6] = biological target: T2, SGLT2; details: literature value (Kanai et al. 1994; US 2008/0234367); cited from earlier work
[7] = biological target: T1, SGLT1; details: literature value (Kanai et al. 1994; US 2008/0234367); cited from earlier work
[8] = rodent models of diabetes and one canine diabetes model

Row | SMILES | AMG content retained in the GI system [1] | amount of AMG detected in plasma [1] | amount of AMG detected in the urine [1] | IC50 [2] [nM] | IC50 [3] [nM] | [A]/[B] (fold) [3] [fold] | further results
1 | OC[C@@H]1O[C@H](n2cc(Cc3ccc(C4CC4)cc3)c3c(F)cccc32)[C@@H](O)[C@H](O)[C@H]1O [Compound 2] | markedly increased at the higher dose | dose-dependent decreases | increased amount of AMG detected in the urine | 270 | 1.9 | 142 | –
2 | O=C(CCc1ccc(O)cc1)c1c(O)cc(O)cc1O [phloretin] | – | – | – | – | – | – | inhibition of facilitated glucose transporters (GLUTs) [4]: potent inhibitor
3 | O=C(CCc1ccc(O)cc1)c1c(O)cc(O)cc1O[C@@H]1O[C@H](CO)[C@@H](O)[C@H](O)[C@H]1O [phlorizin] | – | – | – | – | – | – | fasting and fed plasma glucose levels [5, 8]: lowered fasting and fed plasma glucose levels; glucose excretion [5, 8]: promoted glucose excretion; adverse effects on plasma ion balance, renal function or renal morphology ([5]; treatment for as long as two weeks): No adverse effects
4 | CO[C@H]1O[C@H](CO)[C@@H](O)[C@H](O)[C@H]1O [AMG, Methyl-alpha-D-glucopyranoside] | – | – | – | – | – | – | absorption of oral AMG in vehicle treated rats ([1]; AMG 2 g/kg oral gavage, vehicle treated rats, GI system, plasma and urine samples): absorbed from the GI system; Km [6]: 1600 µM; Km [7]: 400 µM
5 | CCc1ccc(Cc2cn([C@@H]3O[C@H](CO)[C@@H](O)[C@H](O)[C@H]3O)c3ccccc23)cc1 [Compound 1] | did not cause a significant retention | dose-dependent decreases | increase in the amount of AMG detected in the urine | 1700 | 8.4 | 202 | –

Source: patent US8147801B2, “Methods of using alpha-methylglucoside (AMG) as an indicator for glucose absorption and excretion” (Janssen Pharmaceutica, N.V., priority 2009, dated 2012)
